For experiment [1], the system named is ulcerative colitis induced by acetic acid. Put plainly: acetic acid-induced ulcerative colitis. In kind it is in vivo, Male Wistar rats. The settings on record: 0.1 mg/kg oral once daily, 5 days. How it is done:
All medications were administered orally, once daily for 5 consecutive days and the first dose was administered about 2 h after ulcerative colitis induction by about 2 mL (4%, v/v) acetic acid in saline. Ulcer indices (mm) were calculated as the sum of the total length of long ulcers and petechial lesions in each group of rats divided by its number. All values were expressed as mean+S.D. Comparisons between means were carried out using a one-way ANOVA test followed by the Tukey HSD test using SPSS, version 14 (SPSS, Chicago, Ill.). Differences at p<0.05 were considered statistically significant.

The test system of experiment [2] is absolute ethanol-induced ulcer. Put plainly: absolute ethanol-induced ulcer model (gastroprotective activity). In kind it is in vivo, Male Wistar rats. As to conditions: 20 mg/kg oral. How it is done:
The absolute ethanol-induced ulcer model was used for evaluation of gastroprotective activity. Groups of 6 Male Wistar rats were used. Treated groups received either total alcohol extracts (SA or SR) at doses of about 250 mg/kg or about 500 mg/kg. […] A treatment group received Omeprazole (about 20 mg/kg) and a control group received water (about 5 mL/kg). All treatments were administered orally to all groups. […] After one hour all rats were sacrificed, the stomachs were rapidly removed, opened along their greater curvature, and gently rinsed under running tap water. The number and severity of ulcers were visually counted and the ulcer index was calculated. Ulcer indices (mm) were calculated as the sum of the total length of long ulcers and petechial lesions in each group of rats divided by its number. Percent protection was determined according to the following formula: [formula] All values were expressed as mean+S.D. Comparisons between means were carried out using a one-way ANOVA test followed by the Tukey HSD test using SPSS, version 14 (SPSS, Chicago, Ill.). Differences at p<0.05 were considered statistically significant.

`C[C@@H]1C[C@H]2[C@@H]3CCC4=CC(=O)C=C[C@]4(C)[C@@]3(F)[C@@H](O)C[C@]2(C)[C@@]1(O)C(=O)CO` [Dexamethasone, dexamethasone]: the “% protection” value in experiment [1] worked out at 66.36%. For `COc1ccc2[nH]c([S+]([O-])Cc3ncc(C)c(OC)c3C)nc2c1` (stereo not drawn) [Omeprazole], the Score in experiment [2] (30 min before ethanol) is 2.50. Besides, in experiment [2] (ethanol-induced ulcer), the “% protection” value is 45.83%.
